For this assay, the system named is HCT116 cells. As to the kind of experiment: HCT116 cytotoxic activity assay (Alamar Blue, 72 h). Conditions: Homo sapiens, HCT-116, 72 h. (In general: The colour change of resazurin is a common sign of viable cells or microbes.)
[1] abbreviates: read-out: IC50 in the HCT116 cytotoxic activity assay.

pIC50: −log10 of the molar value. Read-outs that look alike come from different tables or passages of the source.

Method: Human tumor cells, e.g., HCT116 cells, are seeded in a 96-well plate at 3.0×10^3 cells/well and grown in 100 μl of RPMI complete media (Invitrogen Corporation, Grand Island, N.Y.) containing 10% fetal bovine serum (Hyclone, Logan, Utah) and 10 mM HEPES and at 37° C. for 16 h in an incubator with 5% CO2. To each well, 50 μl of additional growth media containing 20 μM to 60 nM concentrations of compound with 0.2% DMSO is added. Cells are grown for another 72 h at 37° C. 20 μl of Alamar Blue (Trek Diagnostic Systems, Inc., Cleveland, Ohio) reagent is added to each well and incubated for 4 h at 37° C. Plates are read in a SpectraMax Gemini (Molecular Devices, CA) with 544 nm excitation and 590 nm emission wavelength. IC50 values are determined by linear regression analysis of log drug concentration versus percent inhibition.

Broadly, the pIC50 is the IC50 on a negative log10 scale, so that one unit is a factor of ten. As to `Nc1nc(Nc2ccc(Oc3ccnc(C(F)(F)F)c3)cc2)cc(-c2ccc3[nH]cc(CN4CCOCC4)c3c2)n1` [Example 15, 6-[3-(morpholin-4-ylmethyl)-1H-indol-5-yl]-N^4-(4-{[2-(trifluoromethyl)pyridin-4-yl]oxy}phenyl)pyrimidine-2,4-diamine], the negative logarithm of the IC50 (pIC50) reads like this: under setting [1], under 6.30; (read-out: IC50 in the HCT116 cytotoxic activity assay (upper bound of bin)) at least 5.30. In the case of `Nc1nc(Nc2ccc(Oc3ccnc(C(F)(F)F)c3)cc2)cc(-c2ccc3[nH]ccc3c2)n1` [Example 12, 6-(1H-indol-5-yl)-N^4-(4-{[2-(trifluoromethyl)pyridin-4-yl]oxy}phenyl)pyrimidine-2,4-diamine], under setting [1], the negative-log IC50 (pIC50) is at least 6.30.

The record behind these values is patent US20090286785A1, “Pyrimidine Derivatives” (Bayer Pharmaceuticals Corporation, priority 2005, published 2009).
